Source: patent US20230278972A1, “SUBSTITUTED HALOALKYL SULFONANILIDE HERBICIDES” (FMC Corporation, priority 2020, published 2023)
Like-named read-outs stand apart in the source and are kept apart here.

Columns and labels:
[1] = test system: ducksalad (Heteranthera limosa); test: Test B flooded paddy test, ducksalad; details: 336 h, read-out: Plant response rating, Ducksalad
[2] = test system: Foxtail, Giant (giant foxtail, Setaria faberi); test: Test A postemergence, Foxtail, Giant; assay type: in vivo; details: Setaria faberi, post-emergence, 240 h, Postemergence, 0 to 100 scale (0 no effect, 100 complete control); for pest or weed control at 125 g/ha: 125 g ai/ha; for pest or weed control at 500 g/ha: 500 g ai/ha
Method in brief: (§1)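 Directed soil spray at planting gave the preemergence treatment, while foliar application to one- to two-leaf seedlings (2–10 cm) gave the postemergence one; pots held a loam and sand mixture and chemicals were carried in a non-phytotoxic solvent with surfactant.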

[3] = test system: pigweed (Amaranthus retroflexus); test: Test A postemergence, pigweed; assay type: in vivo; details: Amaranthus retroflexus, post-emergence, 240 h, Postemergence, 0 to 100 scale (0 no effect, 100 complete control); for pest or weed control at 125 g/ha: 125 g ai/ha; for pest or weed control at 500 g/ha: 500 g ai/ha
Method in brief: as §1

[4] = test system: barnyardgrass (Echinochloa crus-galli); test: Test A preemergence, barnyardgrass; assay type: in vivo; details: Echinochloa crus-galli, pre-emergence, 240 h, Preemergence; for pest or weed control at 125 g/ha: 125 g ai/ha; for pest or weed control at 500 g/ha: 500 g ai/ha
Method in brief: as §1

[5] = test system: ragweed (common ragweed, Ambrosia artemisiifolia); test: Test A postemergence, ragweed; assay type: in vivo; details: Ambrosia artemisiifolia, post-emergence, 240 h, Postemergence, 0 to 100 scale (0 no effect, 100 complete control); for pest or weed control at 125 g/ha: 125 g ai/ha; for pest or weed control at 500 g/ha: 500 g ai/ha
Method in brief: as §1

[6] = visual injury approx. 10 days, read-out: Plant response rating, Foxtail, Giant
[7] = visual injury, approx. 10 days, read-out: Plant response rating, Foxtail, Giant
[8] = visual injury approx. 10 days, read-out: Plant response rating, Pigweed
[9] = visual injury, approx. 10 days, read-out: Plant response rating, Pigweed
[10] = visual injury on 0 to 100 scale (0 no effect, 100 complete control), approximately 10 days, read-out: Barnyardgrass plant response rating
[11] = 0 to 100 scale (0 no effect, 100 complete control), read-out: Plant response rating, Barnyardgrass
[12] = visual injury approx. 10 days, read-out: Plant response rating, Ragweed
[13] = visual injury, approx. 10 days, read-out: Plant response rating, Ragweed
[14] = visual injury vs untreated controls after approx. 10 days, read-out: Foxtail, Giant plant response rating
[15] = visual injury vs untreated controls after approx. 10 days, read-out: Pigweed plant response rating
[16] = visual injury vs untreated controls after approx. 10 days, read-out: Ragweed plant response rating
[17] = read-out: Plant response rating, Pigweed
[18] = read-out: Plant response rating, Ragweed
[19] = read-out: Plant response rating, Foxtail, Giant
[20] = visual injury, 0 to 100 scale (0 no effect, 100 complete control), approx. 10 days, read-out: Plant response rating, Barnyardgrass

Compound	pest or weed control at 250 g/ha [1]	pest or weed control at 125 g/ha [2, 6]	pest or weed control at 500 g/ha [2, 7]	pest or weed control at 125 g/ha [3, 8]	pest or weed control at 500 g/ha [3, 9]	pest or weed control at 125 g/ha [4, 10]	pest or weed control at 500 g/ha [4, 11]	pest or weed control at 125 g/ha [5, 12]	pest or weed control at 500 g/ha [5, 13]	pest or weed control at 500 g/ha [2, 14]	pest or weed control at 500 g/ha [3, 15]	pest or weed control at 500 g/ha [5, 16]	pest or weed control at 125 g/ha [3, 17]	pest or weed control at 125 g/ha [5, 18]	pest or weed control at 125 g/ha [2, 19]	pest or weed control at 125 g/ha [4, 20]
Cc1cc(Cl)c(NS(=O)(=O)C(F)(F)F)cc1C(=O)N1CCOCC1 [Compound 16, N-[2-Chloro-4-methyl-5-(4-morpholinylcarbonyl)phenyl]-1,1,1-trifluoromethanesulfonamide]	40%	40%	90%	70%	90%	90%	100%	80%	90%	–	–	–	–	–	–	–
Cc1cc(Cl)c(NS(=O)(=O)C(F)(F)F)cc1C(=O)N1CCCCC1 [Compound 18, N-[2-Chloro-4-methyl-5-(1-piperidinylcarbonyl)phenyl]-1,1,1-trifluoromethanesulfonamide]	0%	20%	70%	40%	90%	100%	100%	0%	80%	–	–	–	–	–	–	–
CCc1cc(-c2cc(NS(=O)(=O)C(F)(F)F)c(C)cc2C)c(=O)n(C)n1 [Compound 34, N-[5-(6-Ethyl-2,3-dihydro-2-methyl-3-oxo-4-pyridazinyl)-2,4-dimethylphenyl]-1,1,1-trifluoromethanesulfonamide]	0%	0%	0%	0%	0%	0%	0%	0%	0%	–	–	–	–	–	–	–
Cc1cc(C)c(N(COC(=O)C(C)(C)C)S(=O)(=O)C(F)(F)F)cc1C1=NO[C@@H]2CCC[C@H]12 [Compound 100, [[2,4-Dimethyl-5-[(3aR,6aR)-3a,5,6,6a-tetrahydro-4H-cyclopent[d]isoxazol-3-yl]phenyl][(trifluoromethyl)sulfonyl]amino]methyl 2,2-dimethylpropanoate]	70%	10%	–	60%	–	70%	90%	40%	–	40%	90%	80%	–	–	–	–
Cc1cc(C)c(C2=NO[C@@H]3CCC[C@H]23)cc1NS(=O)(=O)C(F)(F)F [Compound 103, N-[2,4-Dimethyl-5-[(3aR,6aR)-3a,5,6,6a-tetrahydro-4H-cyclopent[d]isoxazol-3-yl]phenyl]-1,1,1-trifluoromethanesulfonamide]	80%	30%	–	80%	–	90%	90%	60%	–	70%	80%	70%	–	–	–	–
Cc1cc(C)c(C2=NOC3CCOCC23)cc1NS(=O)(=O)C(F)(F)F (stereo not drawn) [Compound 120, N-[2,4-Dimethyl-5-(3a,6,7,7a-tetrahydro-4H-pyrano[3,4-d]isoxazol-3-yl)phenyl]-1,1,1-trifluoromethanesulfonamide]	55%	40%	–	60%	–	90%	100%	80%	–	90%	90%	90%	–	–	–	–
Cc1cc(C)c(C2=NOC3COCCC23)cc1NS(=O)(=O)C(F)(F)F (stereo not drawn) [Compound 121, N-[2,4-Dimethyl-5-(3a,4,7,7a-tetrahydro-5H-pyrano[4,3-d]isoxazol-3-yl)phenyl]-1,1,1-trifluoromethanesulfonamide]	75%	50%	–	70%	–	90%	90%	90%	–	90%	90%	90%	–	–	–	–
Cc1c(NS(=O)(=O)C(F)(F)F)cc(C(=O)N(C)C)c(C)c1F [Compound 128, 3-Fluoro-N,N,2,4-tetramethyl-5-[[(trifluoromethyl)sulfonyl]amino]benzamide]	50%	10%	–	60%	–	100%	100%	80%	–	50%	90%	90%	–	–	–	–
Cc1cc(C)c(N(COC(=O)C(C)(C)C)S(=O)(=O)C(F)(F)F)cc1C1=NOC2(CCCC2)C1 [Compound 140, [[2,4-Dimethyl-5-(1-oxa-2-azaspiro[4.4]non-2-en-3-yl)phenyl][(trifluoromethyl)sulfonyl]amino]methyl 2,2-dimethylpropanoate]	85%	30%	–	–	–	40%	100%	–	–	90%	80%	50%	10%	0%	–	–
Cc1cc(C)c(N(COC(=O)C(C)(C)C)S(=O)(=O)C(F)(F)F)cc1C1=NOC2(CCCCC2)C1 [Compound 159, [[2,4-Dimethyl-5-(1-oxa-2-azaspiro[4.5]dec-2-en-3-yl)phenyl][(trifluoromethyl)sulfonyl]amino]methyl 2,2-dimethylpropanoate]	35%	–	–	–	–	40%	60%	–	–	30%	70%	90%	40%	60%	0%	–
Cc1c(NS(=O)(=O)C(F)(F)F)cc(C(=O)N2CCOCC2)c(C)c1F [Compound 190, 1,1,1-Trifluoro-N-[3-fluoro-2,4-dimethyl-5-(4-morpholinylcarbonyl)phenyl]methanesulfonamide]	75%	–	–	–	–	–	100%	–	–	80%	100%	90%	70%	80%	20%	90%
Cc1cc(C)c(C2=NOC3(CCCCC3)C2)cc1NS(=O)(=O)C(F)(F)F [Compound 197, N-[2,4-Dimethyl-5-(1-oxa-2-azaspiro[4.5]dec-2-en-3-yl)phenyl]-1,1,1-trifluoromethanesulfonamide]	95%	–	–	–	–	–	100%	–	–	90%	90%	80%	60%	80%	80%	90%
Cc1cc(C)c(C2=NOC3(CCCC3)C2)cc1NS(=O)(=O)C(F)(F)F [Compound 207, N-[2,4-Dimethyl-5-(1-oxa-2-azaspiro[4.4]non-2-en-3-yl)phenyl]-1,1,1-trifluoromethanesulfonamide]	95%	–	–	–	–	–	90%	–	–	90%	70%	70%	50%	20%	50%	90%
Cc1cc(Cl)c(NS(=O)(=O)C(F)(F)F)cc1C(=O)N1CCC(F)(F)CC1 [Compound 229, N-[2-Chloro-5-[(4,4-difluoro-1-piperidinyl)carbonyl]-4-methylphenyl]-1,1,1-trifluoromethanesulfonamide]	75%	–	–	–	–	–	90%	–	–	90%	100%	90%	80%	90%	50%	70%
